Assays:
[1] = target: T1, DAT (h) (antagonist radioligand) (Homo sapiens, UniProt Q01959); assay: Radioligand binding panel (Eurofins CEREP), DAT; conditions: % inhibition of control specific binding
T1 construct: Eurofins CEREP (contract study 100014859)
Protocol: (§1) Lauflumide is tested at 10^-5 M, calculated as a % inhibition of control specific binding of a radioactively labeled ligand specific for each target.
(§2) This binding profile panel was broadly defined with roughly an equal number of selective, central and peripheral therapeutically relevant targets, including native animal tissues, radioligands and specific enzymes involved in cell cycle regulation in accordance with Eurofins Standard Operating Procedure (www.eurofins.fr).
(§3) For radioligand binding experiments, the half maximal inhibitory concentration (IC50) and the half maximal effective concentration (EC50) values were determined (via computer software) by nonlinear regression analysis of the competition curves using Hill equation curve fitting. The inhibition constants (Ki) were calculated using the Cheng-Prusoff equation (Ki=IC50/(1+(L/KD)), where L is the concentration of radioligand in the assay, and KD is the affinity of the radioligand for the receptor.
(§4) The results are expressed as a % control specific binding ([measured specific binding/control specific binding]×100) and as a % inhibition of control specific binding (100−[(measured specific binding/control specific binding)×100]) obtained in the presence of the test compounds. […]

[2] = target: T2, Histamine 2 (h) (H2) (agonist radioligand) (Homo sapiens, UniProt P25021); assay: Radioligand binding panel (Eurofins CEREP), histamine H2; conditions: % inhibition of control specific binding
T2 construct: Eurofins CEREP (contract study 100014859)
Protocol: as §1, §2, §3, §4

[3] = target: T3, Relaxin-3 (RXFP3) (h) (agonist radioligand) (Homo sapiens, UniProt Q9NSD7); assay: RXFP3 assay (Eurofins/leadHunter GPCR Biosensor cAMP Hunter); assay type: cell-based
T3 sequence (Q9NSD7 1-469): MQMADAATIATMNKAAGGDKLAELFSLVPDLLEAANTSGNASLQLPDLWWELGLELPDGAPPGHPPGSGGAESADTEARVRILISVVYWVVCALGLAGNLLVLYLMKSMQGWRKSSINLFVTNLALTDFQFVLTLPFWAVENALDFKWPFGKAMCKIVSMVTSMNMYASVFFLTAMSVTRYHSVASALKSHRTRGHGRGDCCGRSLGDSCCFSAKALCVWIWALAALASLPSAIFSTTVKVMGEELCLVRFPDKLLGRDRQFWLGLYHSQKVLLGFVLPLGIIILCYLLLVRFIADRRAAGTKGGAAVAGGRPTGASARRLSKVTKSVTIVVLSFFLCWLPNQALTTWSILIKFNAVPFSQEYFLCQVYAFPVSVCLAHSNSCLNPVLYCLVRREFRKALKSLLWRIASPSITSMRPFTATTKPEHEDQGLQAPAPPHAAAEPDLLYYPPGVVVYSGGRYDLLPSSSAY
Protocol: Lauflumide is found to weakly bind with RXFP3 receptors (Study US073-0006869-Q Eurofins/leadHunter 8/1/19; unpublished data) (Table 1).
In these assays' compounds were tested in agonist and antagonist mode with the GPCR Biosensor Assays and match to this design:
1. cAMP Hunter cell lines were expanded from freezer stocks according to standard procedures.
2. Cells were seeded in a total volume of 20 μL into white walled, 384-well microplates and incubated at 37° C. for the appropriate time prior to testing.
3. cAMP modulation was determined using the DiscoverX HitHunter cAMP XS+ assay.
1. For agonist determination, cells were incubated with sample in the presence of EC80 forskolin to induce response.
2. Media was aspirated from cells and replaced with 15 μL 2:1 HBSS/10 mM Hepes: cAMP XS+ Ab reagent.
3. […]
2. Microplates were read following signal generation with a PerkinElmer Envision™ instrument for chemiluminescent signal detection.
1. Compound activity was analyzed using CBIS data analysis suite (ChemInnovation, CA).
5. For Gi agonist mode assays, percentage activity is calculated using the following formula: […]
8. For Gi antagonist or negative allosteric mode assays, percentage inhibition is calculated using the following formula: % Inhibition=100%×(mean RLU of test sample−mean RLU of EC80 control)/(mean RLU of forskolin positive control−mean RLU of […]

T2 sequence (P25021 whole entry): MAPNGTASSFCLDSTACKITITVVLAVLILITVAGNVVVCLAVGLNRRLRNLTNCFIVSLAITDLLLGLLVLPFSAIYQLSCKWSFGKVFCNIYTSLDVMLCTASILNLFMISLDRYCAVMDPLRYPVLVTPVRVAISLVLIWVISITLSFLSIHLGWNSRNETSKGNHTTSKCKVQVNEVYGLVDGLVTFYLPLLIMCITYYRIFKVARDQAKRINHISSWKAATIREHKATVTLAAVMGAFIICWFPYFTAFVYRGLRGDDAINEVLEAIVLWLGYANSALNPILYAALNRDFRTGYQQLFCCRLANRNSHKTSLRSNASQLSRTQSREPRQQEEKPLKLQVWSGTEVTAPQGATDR
T1 sequence (Q01959 whole entry): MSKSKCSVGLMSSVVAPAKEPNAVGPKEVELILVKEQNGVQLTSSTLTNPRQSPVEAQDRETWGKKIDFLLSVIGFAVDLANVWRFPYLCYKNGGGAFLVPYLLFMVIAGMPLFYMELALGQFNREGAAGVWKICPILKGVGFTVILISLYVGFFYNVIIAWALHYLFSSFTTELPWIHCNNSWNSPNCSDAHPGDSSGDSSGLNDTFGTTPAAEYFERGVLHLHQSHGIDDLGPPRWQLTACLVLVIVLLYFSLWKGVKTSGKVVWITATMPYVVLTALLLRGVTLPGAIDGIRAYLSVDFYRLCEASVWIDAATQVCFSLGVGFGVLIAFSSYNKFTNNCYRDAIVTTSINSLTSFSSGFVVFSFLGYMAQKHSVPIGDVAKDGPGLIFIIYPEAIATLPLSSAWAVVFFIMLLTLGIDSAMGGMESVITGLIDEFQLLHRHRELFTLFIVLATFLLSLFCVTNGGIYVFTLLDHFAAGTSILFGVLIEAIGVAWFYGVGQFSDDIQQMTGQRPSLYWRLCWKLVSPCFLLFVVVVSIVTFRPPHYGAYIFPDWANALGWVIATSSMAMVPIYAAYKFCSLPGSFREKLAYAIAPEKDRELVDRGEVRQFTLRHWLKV

In the case of `NC(=O)C[S@@+]([O-])C(c1ccc(F)cc1)c1ccc(F)cc1` [Lauflumide, 2-[(R)-((bis(4-fluorophenyl)methane)sulfinyl)]acetamide], the “% Inhibition at 10^−5M” value [1] is reported as 84.4%, the “% Inhibition at 10^−5M” value [2] is reported as 46.6% and the “% Inhibition at 10^−5M” value [3] is reported as 23.9%.
